Laboratory results taken from patent US20230391727A1, “ANALOGUES OF PENTAMIDINE AND METHODS FOR TREATING INFECTIONS” (Auransa Inc., priority 2020, published 2023).
In brackets after ≈: the same amount, converted by molar mass.

Key:
[1] = system: NCI H69 cells; assay: CellTiter-Glo cell viability assay (cytotoxicity), 8 days; type: cell-based; conditions: Homo sapiens, 192 h, full growth media
Experimental: The experiment tested pentamidine, Compounds 1-6 in full growth media for 8 days. NCI H69 cells were initially treated with the test compounds on Day 0, and the cells were then replenished with fresh compound dilutions on Day 3. Pentamidine and Compound 1 were tested at 9 concentration points: 100 μM, 33.33 μM, 11.11 μM, 3.70 μM, 1.23 μM, […], 0.05 μM, and 0.02 μM (final DMSO concentration=0.5%). The raw data values from the CellTiter-Glo™ cell viability assay expressed in relative luminescence units were normalized to the vehicle for each individual plate, and any reduction in luminescence indicated a decrease in viability (%). The data was analyzed in GraphPad PRISM using a non-linear sigmoidal plot with variable slope (asymmetric four-point […]), and an IC50 value for each compound was generated based on the normalized dose-response curves and shown in Table 1.

[2] = system: Candida parapsilosis, Candida krusei, Candida albicans, Candida auris, Candida glabrata, Candida guilliermondii, and Cryptococcus neoformans; assay: Anti-fungal MIC assay, summary of second round; type: cell-based; conditions: Candida strains
Experimental: (§1) The first round of testing included Candida parapsilosis, Candida krusei, Paecilomyces variotii, Candida albicans, Aspergillus fumigatus, and Blastomyces dermatitidis. […] The second round of testing included Candida parapsilosis, Candida krusei, Candida albicans, Candida auris, Candida glabrata, Candida guilliermondii, and Cryptococcus neoformans.
(§2) Stock solutions of the investigational agent were prepared at concentrations 100-times the highest concentration to be tested (6400 μg/ml) using dimethyl sulfoxide. Aliquots of the stock solutions were dispensed into polystyrene vials and stored at −20° C.
(§3) The synthetic medium RPMI-1640 (with glutamine, without bicarbonate, and with phenol red) was used. The RPMI was buffered to a pH of 7.0+0.1 at 25° C. with 0.165M MOPS (3-[N-morpholino] propanesulfonic acid). Sterile U-shaped 96-well cell culture plates were used to perform the MIC assays. […]
(§4) Fungal isolates were grown on Sabouraud dextrose agar (yeasts) or potato flake agar (filamentous fungi) and cells were collected after an appropriate period of growth for each species being evaluated (e.g., 48-72 hours for yeasts and 7 days for filamentous fungi). The fungi were suspended in sterile distilled water, and the densities of the fungal suspension were read using a spectrophotometer and adjusted to an appropriate optical density specific for each fungal species. […]

[3] = Anti-fungal MIC assay, summary of second round; type: cell-based; conditions: read-out: Isolate MIC (100%); range over isolates of the second round of testing
Experimental: as §1, §2, §3, §4

[4] = system: Salmonella typhimurium (ATCC 13311); assay: Checkerboard/MIC assay with rifampicin; type: cell-based; conditions: Salmonella typhimurium ATCC13311
Excerpt: The 17 test strains/isolates were: (1) Serratia marcescens (ATCC 13880); (2) Salmonella typhimurium (ATCC 13311); (3) Salmonella choleraesuis (ATCC 10708); (4) Acinetobacter baumannii (ATCC BAA-1605); (5) A. baumannii (ATCC 17978); (6) A. baumannii (FDA-CDC AR-BANK#0088); (7) Citrobacter freundii (ATCC 8090); (8) Pseudomonas aeruginosa (BCCM 27647); (9) P. aeruginosa (BCCM 27648); (10) Escherichia coli (ATCC 25922); (11) E. coli (ATCC 10536); (12) Stenotrophomonas maltophilia (ATCC 13637); (13) Enterobacter cloacae (ATCC BAA-1143); (14) E. cloacae (ATCC 13047); (15) E. aerogenes (ATCC 13048); (16) Klebsiella pneumoniae (NCTC 13438); and (17) Klebsiella pneumoniae (FDA-CDC AR-BANK#0160). These bacterial strains were obtained from the American Type Culture Collection (ATCC, Rockville, MD, USA); Belgian Coordinated Collections of Microorganisms; The Culture Collections of Public Health England, UK; and FDA-CDC anticimrobial Resistance Isolate Bank, USA, and cryopreserved as single-use frozen working stock cultures which were stored at −80° C.
The 17 test strains were grown on nutrient agar or tryptic soy agar (TSA) medium as below. Colonies were suspended in phosphate buffered saline (PBS) pH 7.4. The absorbance of the bacterial suspension was measured with a spectrophotometer at OD620nm, and then the suspension was adjusted to 1-2×10^8 CFU/mL in PBS. The adjusted suspension was further diluted 1:500 in cation-adjusted Mueller-Hinton Broth. Each well contained approximately 5×10^5 CFU/mL. […] The testing inoculum was prepared within minutes before adding to wells of the test plate.
Compound 3 was tested in 8 points by two-fold serial titrations from 100 to 0.78 μg/mL. […] Assay plates were incubated and MIC endpoints were read as complete inhibition of visual growth. The checkerboard combination analysis was performed following the MIC testing protocol to identify potential synergistic, indifferent or antagonistic interactions. The analysis also included each test substance alone at the same concentration ranges.
FIC (Fraction Inhibitory Concentration) and FIC Index (FICI) values for each test condition and the average of FICI values of all pairwise combinations were calculated to determine if synergy or antagonism existed between the two substances. The FIC index was determined by calculating the sum of the ratios of MICs (minimum inhibitory concentrations) for both substances. […] Synergy is defined as the FICI (Σ)≤0.5; additivity or indifference are defined as the FICI (Σ)>0.5 to ≤4; antagonism is defined as the FICI (Σ)>4. The two fold of highest test article concentration was used for FIC value calculations in the circumstances where MIC values were greater than the highest test article concentration.

[5] = system: A. baumannii ATCC 17978; assay: Checkerboard assay with novobiocin (FIGS. 2, 3, 5, 6); type: cell-based, Acinetobacter baumannii
Excerpt: Novobiocin is an anti-staphylococcal drug, but with limited use. The oral form of novobiocin drug has since been withdrawn from the market due to lack of efficacy. This antibiotic is often used to treat Staphylococcus aureus infection, particularly methicillin resistant S. aureus “MRSA”.

[6] = compound 3 in combination with rifampicin

N=C(N)c1ccc(CC[C@H]2CCC[C@@H](CCc3ccc(C(=N)N)cc3)C2)cc1 [Compound 3, 4,4′-(2,2′-((1R,3S)-cyclohexane-1,3-diyl)bis(ethane-2,1-diyl))dibenzimidamide]
IC50 [1]: 0.8 µM | anti-fungal effectiveness compared to fluconazole [2]: more effective in killing several Candida strains of interest that are not affected by fluconazole | MIC [3]: 0.5 to 8 µg/mL (≈ 1.33 to 21.2 µM) | MIC ([4]; Salmonella enterica, substance alone): 12.5 µg/mL | Combination Result [4, 6]: synergy (Synergy is defined as the FICI (Σ)≤0.5) | FICI (Average) [4, 6]: 0.34 | synergistic effect with novobiocin [5]: clear synergistic effect | synergy with novobiocin as compared to pentamidine with novobiocin [5]: superior synergy | MIC ([5]; Acinetobacter baumannii, ATCC17978, substance alone): 33.2 µM
